Experimental data as given in ChEMBL document CHEMBL2321754, “Novel small molecule protein arginine deiminase 4 (PAD4) inhibitors” (Bioorg Med Chem Lett, 2013).

Experiments:
Carbonic anhydrase 9 = Carbonic anhydrase 9 (Homo sapiens, UniProt Q16790)
Description: Inhibition of human CA9 by stopped-flow assay

Carbonic anhydrase 12 = Carbonic anhydrase 12 (Homo sapiens, UniProt O43570); assay: Inhibition of human CA12 by stopped-flow assay
Carbonic anhydrase 2 = Carbonic anhydrase 2 (Homo sapiens, UniProt P00918); assay: Inhibition of human CA2 by stopped-flow assay
Carbonic anhydrase 1 = Carbonic anhydrase 1 (Homo sapiens, UniProt P00915); assay: Inhibition of human CA1 by stopped-flow assay
Chain of Carbonic anhydrase 1 (P00915 whole entry): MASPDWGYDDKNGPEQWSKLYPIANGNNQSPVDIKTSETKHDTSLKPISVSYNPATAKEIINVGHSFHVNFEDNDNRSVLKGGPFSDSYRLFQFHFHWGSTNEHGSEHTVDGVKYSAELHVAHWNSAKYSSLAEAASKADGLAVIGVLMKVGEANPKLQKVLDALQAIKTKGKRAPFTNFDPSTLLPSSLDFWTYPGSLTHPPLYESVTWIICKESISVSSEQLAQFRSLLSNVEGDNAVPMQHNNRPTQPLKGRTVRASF

Chain of Carbonic anhydrase 12 (O43570 whole entry): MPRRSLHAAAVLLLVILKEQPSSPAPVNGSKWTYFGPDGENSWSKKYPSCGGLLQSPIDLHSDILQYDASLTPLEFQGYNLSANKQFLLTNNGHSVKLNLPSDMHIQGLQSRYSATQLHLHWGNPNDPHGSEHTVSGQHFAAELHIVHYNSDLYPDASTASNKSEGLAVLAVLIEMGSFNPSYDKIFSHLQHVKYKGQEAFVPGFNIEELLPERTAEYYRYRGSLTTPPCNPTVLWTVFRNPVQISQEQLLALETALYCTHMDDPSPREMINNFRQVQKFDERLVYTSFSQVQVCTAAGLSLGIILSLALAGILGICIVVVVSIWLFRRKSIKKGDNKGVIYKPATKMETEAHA

N=C(N)Nc1ccc(O)cc1
Ki (Carbonic anhydrase 9): 4130 nM | Ki (Carbonic anhydrase 12): 14600 nM | Ki (Carbonic anhydrase 2): 7510 nM | Ki (Carbonic anhydrase 1): 8340 nM

N=C(N)NCCc1ccc(S(N)(=O)=O)cc1
Ki (Carbonic anhydrase 9): 34 nM | Ki (Carbonic anhydrase 12): 14 nM | Ki (Carbonic anhydrase 2): 89 nM | Ki (Carbonic anhydrase 1): 240 nM

N=C(N)Nc1ccc(C(=O)O)cc1 [4-GUANIDINO-BENZOIC ACID]
Ki (Carbonic anhydrase 9): 2560 nM | Ki (Carbonic anhydrase 12): 480 nM | Ki (Carbonic anhydrase 2): 1150 nM | Ki (Carbonic anhydrase 1): 630 nM
